Assay results as given in article PMC6591397, “Functional Roles of Metabolic Intermediates in Regulating the Human Mitochondrial NAD(P)^+-Dependent Malic Enzyme” (Scientific Reports, 2019).
Where two headings read alike, the source gives them in different places.

Experiments:
[1] = target: human m-NAD(P)-ME WT and the exosite mutants; test: Size distribution analysis by analytical ultracentrifugation of WT and exosite mutants, protein only, with NAD+ or with ATP; assay type: binding; conditions: PBS
Experimental: Size distribution of the monomer-dimer-tetramer equilibrium of the enzyme was monitored using a Beckman Optima XL-A analytical ultracentrifuge instrument. A protein sample (380 µl) and reference buffer (400 µl) were loaded into a well-assembled cell with a double-sector centerpiece. Experiments were performed with an An-50Ti rotor at 42,000 rpm and 20 °C for 3 to 4 hours. The scans for sedimentation velocity data were monitored by the UV absorbance at 280 nm with a 480 s interval time and a 0.002 cm step size in continuous distribution mode. Using the SEDFIT 9.4c software[31]–[34], the size distribution of the enzyme was analyzed with a resolution corresponding to N = 200 to cover the range of sedimentation coefficient (S) values from approximately 0.1 to 20, a confidence level of p = 0.95, and a best-fit average anhydrous frictional ratio (f/f0). The dissociation constants of monomer-dimer-tetramer self-association model were globally analyzed by using the SEDPHAT software.
All sedimentation velocity data were globally fitted by a monomer-dimer-tetramer equilibrium model by the software program of SEDPHAT[34]. The parameters protein partial specific volume, solvent density and viscosity were calculated with the […] software program.
Figure 4 Continuous sedimentation coefficient distribution of human m-NAD(P)-ME WT and the exosite mutants. The enzyme concentrations were fixed at 1.6, 4.7, and 14.2 μM in PBS. […] (a) ME2_WT; (b) ME2_H154V; (c) ME2_K156A; (d) ME2_G192A; (e) ME2_R194N; (f) ME2_R197E; (g) ME2_R197D.
Figure 5 Continuous sedimentation coefficient distribution of human m-NAD(P)-ME WT and the exosite mutants. The enzyme concentrations were fixed at 1.6, 4.7, and 14.2 μM in PBS. […] (a) ME2_N482G; (b) ME2_N482A; (c) ME2_R542V; (d) ME2_Y552F; (e) ME2_R556Q; (f) ME2_R556V.

[2] = system: human m-NAD(P)-ME WT and exosite mutants; test: Enzyme kinetic assay (NADH production, absorbance at 340 nm) of WT and exosite mutants; assay type: biochemical; conditions: for K0.5,malate / Km / kcat: pH 7.4
Experimental: The ME reaction was measured with the production rate of NADH or NADPH via the absorbance at 340 nm. The reaction mixture in a saturated condition included 1 mM NAD(P)^+, 40 mM malate, and 10 mM MgCl2 in 50 mM Tris-HCl (pH 7.4). To determine the Km and kcat values, the concentration of one substrate was varied around its Km values while the concentrations of the other components were fixed at saturated concentrations.
The cooperativity of malate was determined with the following equation: ν=Vmax×[Malate]^h/K0.5h+[Malate]^h where ν is the initial velocity, Vmax is the maximum rate of the reaction, K0.5 is the substrate concentration at half-maximal velocity, and h is the Hill coefficient, which represents the degree of cooperativity.

[3] = protein only, read-out: Kd,12 monomer-dimer dissociation constant
[4] = protein only, read-out: Kd,24 dimer-tetramer dissociation constant
[5] = read-out: Kd,12(ATP), with 0.5 mM ATP
[6] = read-out: Kd,24(ATP), with 0.5 mM ATP
[7] = with 0.4 mM NAD+, read-out: Kd,12(NAD)
[8] = with 0.4 mM NAD+, read-out: Kd,24(NAD)

Row | Substance | Kd [1, 3] | Kd [1, 4] | Kd [1, 5] | Kd [1, 6] | Kd [1, 7] | Kd [1, 8] | h (Hill coefficient, malate cooperativity) ([2]; (+) with 5 mM fumarate) | K0.5,malate ([2]; (+) with 5 mM fumarate) | Km ([2]; (+) with 5 mM fumarate) | kcat ([2]; (+) with 5 mM fumarate) | h (Hill coefficient, malate cooperativity) ([2]; (−) without fumarate) | K0.5,malate ([2]; (−) without fumarate) | Km ([2]; (−) without fumarate) | kcat ([2]; (−) without fumarate) | kcat compared with the WT value [2] | h (Hill coefficient, malate cooperativity) ([2]; (−) without fumarate, listed as Human m-NAD(P)-ME)
1 | K156A: exosite mutant of human m-NAD(P)-ME | 120 ± 4 nM | 320 ± 10 nM | 320 ± 10 nM | 800 ± 20 nM | 1360 ± 50 nM | 80 ± 3 nM | 1.01 ± 0.10 | 3.56 ± 0.40 mM | 320 ± 30 µM | 223.6 ± 5.1 s⁻¹ | 1.65 ± 0.04 | 10.12 ± 0.21 mM | 650 ± 70 µM | 209.9 ± 6.2 s⁻¹ |  | 
2 | N482G: exosite mutant of human m-NAD(P)-ME | 50 ± 10 nM | 180 ± 2 nM | 100 ± 3 nM | 60 ± 2 nM | 380 ± 2 nM | 40 ± 10 nM | 1.00 ± 0.09 | 4.23 ± 0.47 mM | 610 ± 40 µM | 309.7 ± 11.5 s⁻¹ | 1.59 ± 0.14 | 23.81 ± 2.70 mM | 1500 ± 140 µM | 263.2 ± 19.7 s⁻¹ |  | 
3 | R556V: exosite mutant of human m-NAD(P)-ME | 130 ± 1 nM | 2300 ± 20 nM | 2030 ± 60 nM | 180 ± 10 nM | 600 ± 10 nM | 4070 ± 80 nM | 1.24 ± 0.30 | 1.87 ± 0.26 mM | 360 ± 20 µM | 204.9 ± 9.5 s⁻¹ | 2.35 ± 0.47 | 15.90 ± 1.51 mM | 1080 ± 60 µM | 195.2 ± 12.8 s⁻¹ |  | 
4 | G192A: exosite mutant of human m-NAD(P)-ME | 90 ± 2 nM | 300 ± 1 nM | 210 ± 10 nM | 400 ± 10 nM | 60 ± 2 nM | 180 ± 10 nM | 1.19 ± 0.10 | 2.65 ± 0.18 mM | 320 ± 30 µM | 230.0 ± 4.4 s⁻¹ | 1.30 ± 0.19 | 11.18 ± 2.08 mM | 570 ± 70 µM | 210.6 ± 7.7 s⁻¹ |  | 
5 | R194N: exosite mutant of human m-NAD(P)-ME | 310 ± 10 nM | 230 ± 10 nM | 80 ± 1 nM | 1440 ± 30 nM | 170 ± 10 nM | 40 ± 1 nM | 1.08 ± 0.08 | 5.11 ± 0.50 mM | 760 ± 70 µM | 227.4 ± 6.1 s⁻¹ | 2.18 ± 0.15 | 19.53 ± 0.91 mM | 1600 ± 160 µM | 204.4 ± 8.3 s⁻¹ |  | 
6 | H154V: exosite mutant of human m-NAD(P)-ME | 30 ± 2 nM | 460 ± 3 nM | 460 ± 10 nM | 4030 ± 40 nM | 70 ± 1 nM | 160 ± 1 nM | 1.08 ± 0.05 | 4.94 ± 0.26 mM | 530 ± 40 µM | 140.5 ± 2.5 s⁻¹ | 1.99 ± 0.10 | 15.31 ± 0.51 mM | 970 ± 60 µM | 134.6 ± 2.9 s⁻¹ | reduced to half of the WT value | 
7 | R542V: exosite mutant of human m-NAD(P)-ME | 10 ± 1 nM | 440 ± 10 nM | 20 ± 1 nM | 9870 ± 380 nM | 1870 ± 80 nM | 210 ± 10 nM | 1.06 ± 0.11 | 5.89 ± 0.78 mM | 910 ± 180 µM | 239.3 ± 12.6 s⁻¹ | 1.43 ± 0.09 | 27.00 ± 3.44 mM | 2180 ± 270 µM | 175.6 ± 14.0 s⁻¹ |  | 
8 | WT: wild-type human mitochondrial NAD(P)+-dependent malic enzyme (ME2), recombinant from E. coli | 240 ± 2 nM | 350 ± 3 nM | 640 ± 10 nM | 2720 ± 60 nM | 660 ± 10 nM | 50 ± 1 nM | 1.10 ± 0.09 | 2.98 ± 0.21 mM | 390 ± 50 µM | 261.7 ± 6.0 s⁻¹ | 2.41 ± 0.32 | 10.67 ± 0.64 mM | 540 ± 60 µM | 252.0 ± 8.2 s⁻¹ |  | approximately 2
9 | R556Q: exosite mutant of human m-NAD(P)-ME | 10 ± 3 nM | 1750 ± 60 nM | 400 ± 10 nM | 180 ± 10 nM | 180 ± 10 nM | 910 ± 30 nM | 1.20 ± 0.07 | 4.75 ± 0.31 mM | 690 ± 60 µM | 251.8 ± 5.6 s⁻¹ | 1.71 ± 0.27 | 19.01 ± 2.40 mM | 1160 ± 220 µM | 220.5 ± 16.2 s⁻¹ |  | 
10 | R197E: exosite mutant of human m-NAD(P)-ME | 30 ± 1 nM | 2330 ± 80 nM | 100 ± 3 nM | 590 ± 20 nM | 100 ± 3 nM | 1110 ± 40 nM | 1.24 ± 0.10 | 4.55 ± 0.37 mM | 1110 ± 90 µM | 187.6 ± 5.2 s⁻¹ | 1.65 ± 0.30 | 23.37 ± 4.48 mM | 2370 ± 280 µM | 165.2 ± 20.4 s⁻¹ |  | 
11 | R197D: exosite mutant of human m-NAD(P)-ME | 800 ± 20 nM | 260 ± 10 nM | 690 ± 20 nM | 110 ± 3 nM | 60 ± 3 nM | 810 ± 40 nM | 1.06 ± 0.05 | 4.98 ± 0.28 mM | 130 ± 20 µM | 216.0 ± 0.1 s⁻¹ | 1.76 ± 0.23 | 17.82 ± 2.01 mM | 460 ± 50 µM | 206.8 ± 0.1 s⁻¹ |  | 
